What all share (assay): inhibition of tumour cell growth, NCI panel, 48 h
Experiment [1] has as its system EKVX.
Experiment [2] relates to HCT-15.
Experiment [3] concerns HL-60.
In experiment [4] the test system is Hs-578T.
The subject of experiment [5] is IGROV-1.
For experiment [6], the system named is K562.
Experiment [7] concerns KM12.
Experiment [8] has as its system M14.
Experiment [9] deals with MOLT-4.
The test system of experiment [10] is NCI-H23.
Experiment [11] relates to OVCAR-3.
Experiment [12] relates to OVCAR-4.
For experiment [13], the system named is SF-268.
Experiment [14] has as its system SK-MEL-28.
Experiment [15] concerns SK-MEL-2.
In experiment [16] the test system is SK-OV-3.
Experiment [17] concerns SW-620.
In experiment [18] the test system is T47D.
For experiment [19], the system named is U-251.
The test system of experiment [20] is UACC-257.

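Following 48 hours of exposure in 96-well plates, responses at five concentrations were used to interpolate endpoints linearly. GI50 is the concentration that inhibits growth by half.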 The source made the active and inactive calls. No stated cut-off is given here; in the data, active = GI50 up to about 1.1 µM and inactive = higher. Where only a bound is given, the exact number is not on record here.

On to `Cn1c2ccccc2n2c3ccccc3c(=O)c(C#N)c12`, for which the GI50 was 18.7 µM (inactive) in experiment [1]; 6.62 µM in experiment [2]; 3.41 µM (inactive) in [3]; 13.2 µM (inactive) in [4]; 6.01 µM (inactive) in experiment [5]; 9.79 µM (inactive) in [6]. Also, the GI50 in [7] is 12 µM (inactive); in experiment [8], > 75.3 µM (inactive); in experiment [9] it was 2.96 µM (inactive); in experiment [10], 8.24 µM (inactive); in [11], > 100 µM (inactive); in experiment [12], > 100 µM (inactive). The GI50 in [13] was 10.4 µM (inactive); in experiment [14], > 83.4 µM (inactive); in experiment [15], 48.8 µM (inactive); in [16], 27.3 µM (inactive); in [17], 4.62 µM (inactive); in experiment [18], 17.6 µM (inactive). In addition, the figures for the GI50 in experiment [19] and in experiment [20] were 12 µM (inactive) and 55.6 µM (inactive), respectively.
Regarding `Cc1ccccc1/N=N/c1c(O)c(S(=O)(=O)O)cc2cc(S(=O)(=O)O)ccc12`, the GI50 is > 100 µM (inactive) in experiment [1]; over 100 µM in [2]; > 100 µM (inactive) in experiment [3]; > 100 µM (inactive) in [4]; > 100 µM (inactive) in experiment [5]; > 100 µM (inactive) in experiment [6]. Further, the GI50 in experiment [7], in [8], in experiment [9], in experiment [10], in [11] and in experiment [12] was > 100 µM (inactive) each time. Besides, the GI50 in experiment [13], in [14], in experiment [15], in [16], in experiment [17] and in experiment [18] was > 100 µM (inactive) throughout. For the same compound, the GI50 in experiment [19] and in experiment [20] was > 100 µM (inactive) each time.
Consider `S=C(N/N=C/c1ccccn1)N1CC2CCC(CC2)C1`, for which the GI50 is < 0.0395 µM (active) in experiment [1]; under 0.01 µM in [2]; < 0.01 µM (active) in experiment [3]; 0.299 µM (active) in experiment [4]; < 0.01 µM (active) in experiment [5]; < 0.01 µM (active) in experiment [6]. The GI50 in experiment [7] is < 0.01 µM (active); in experiment [8], < 0.01 µM (active); in experiment [9] it was < 0.01 µM (active); in experiment [10] it was < 0.01 µM (active); in experiment [11], < 0.01 µM (active); in experiment [12], 0.0308 µM (active). Also, the GI50 in experiment [13] was 0.0301 µM (active); in [14] it was 0.0559 µM (active); in [15], < 0.0471 µM (active); in [16], < 0.01 µM (active); in [17] it was < 0.01 µM (active); in experiment [18] it was < 0.01 µM (active). The GI50 in experiment [19] and in [20] was < 0.01 µM (active) throughout.
Regarding `CCc1nc(N)nc(N)c1-c1ccc(Cl)c([N+]#N)c1`, the GI50 in [1] is > 100 µM (inactive); in experiment [2], 28.8 µM; in experiment [3], 40.8 µM (inactive); in experiment [4] it was 46.6 µM (inactive); in experiment [5], 6.58 µM (inactive); in experiment [6] it was 6.32 µM (inactive). For the same compound, the GI50 in experiment [7] is 38.1 µM (inactive); in [8], 65.5 µM (inactive); in experiment [9], 23.1 µM (inactive); in experiment [10], 28.5 µM (inactive); in experiment [11] it was 44.5 µM (inactive); in experiment [12], > 100 µM (inactive). Also, the GI50 in experiment [13] is > 100 µM (inactive); in experiment [14] it was > 100 µM (inactive); in experiment [15], > 100 µM (inactive); in experiment [16] it was > 100 µM (inactive); in experiment [17] it was 36.5 µM (inactive); in experiment [18], > 100 µM (inactive). Besides, the GI50 in experiment [19] is 64.3 µM (inactive); in experiment [20], > 100 µM (inactive).
As for `CC(NC(=O)C(NC(=O)C(NC(=O)C(F)(F)F)C(C)C)C(C)C)C(=O)Oc1c(Cl)c(Cl)c(Cl)c(Cl)c1Cl` (stereo not given), the GI50 in [1] is > 100 µM (inactive); in experiment [2], over 100 µM; in experiment [3] it was > 100 µM (inactive); in experiment [4] it was > 100 µM (inactive); in [5] it was > 100 µM (inactive); in experiment [6] it was > 100 µM (inactive). Moreover, the GI50 in experiment [7] is > 100 µM (inactive); in experiment [8] it was > 100 µM (inactive); in experiment [9], > 100 µM (inactive); in experiment [10], > 100 µM (inactive); in [11], 92.5 µM (inactive); in experiment [12] it was > 100 µM (inactive). Further, the GI50 is > 100 µM (inactive) in experiment [13]; > 100 µM (inactive) in experiment [14]; > 100 µM (inactive) in [15]; > 100 µM (inactive) in experiment [16]; > 100 µM (inactive) in experiment [17]; 83.4 µM (inactive) in experiment [18]. The GI50 in experiment [19] and in experiment [20] was > 100 µM (inactive) each time.
As for `O=C(/C=C/c1ccccc1O)CC(=O)/C=C/c1ccccc1O`, the GI50 was 13.3 µM (inactive) in experiment [1]; 3.64 µM in experiment [2]; 3.24 µM (inactive) in experiment [3]; 8.17 µM (inactive) in experiment [4]; 5.73 µM (inactive) in experiment [5]; 3.82 µM (inactive) in experiment [6]. Further, the GI50 is 6.4 µM (inactive) in experiment [7]; 12.8 µM (inactive) in experiment [8]; 3.78 µM (inactive) in experiment [9]; 2.81 µM (inactive) in experiment [10]; 3.82 µM (inactive) in experiment [11]; 15.1 µM (inactive) in [12]. For the same compound, the GI50 in experiment [13] is > 10 µM (inactive); in experiment [14], 12.8 µM (inactive); in experiment [15], 8.79 µM (inactive); in [16], > 10 µM (inactive); in [17] it was 4.51 µM (inactive); in [18], 5.45 µM (inactive). In addition, the GI50 is 4.26 µM (inactive) in experiment [19] and 10.3 µM (inactive) in experiment [20].
Regarding `CCOP(=O)(O)C(Nc1ccc(/N=N/c2ccccc2)cc1)c1ccc(C(Nc2ccc(/N=N/c3ccccc3)cc2)P(=O)(O)OCC)cc1` (stereo not given), the GI50 in experiment [1] was 18.7 µM (inactive); in [2], 19.7 µM; in experiment [3], 17.1 µM (inactive); in experiment [4] it was 18.6 µM (inactive); in [5] it was 19.7 µM (inactive); in [6] it was 19.6 µM (inactive). The GI50 in experiment [7] was 16.5 µM (inactive); in [8] it was 15.7 µM (inactive); in [9], 20.3 µM (inactive); in experiment [10], 29.2 µM (inactive); in [11], 75.7 µM (inactive); in experiment [12] it was 42.8 µM (inactive). Besides, the GI50 was 20.4 µM (inactive) in experiment [13]; 19.2 µM (inactive) in experiment [14]; 18.2 µM (inactive) in experiment [15]; 18.7 µM (inactive) in experiment [16]; 16.7 µM (inactive) in experiment [17]; 15.3 µM (inactive) in experiment [18]. For the same compound, the results for the GI50 in experiment [19] and in experiment [20] were 18.1 µM (inactive) and 26.4 µM (inactive), respectively.

These data come from ChEMBL document CHEMBL1201862, “PubChem BioAssay data set” (2004).
